Experimental data as given in publication PMC5053523, “In Vitro Antibacterial Activity of Rhodanine Derivatives against Pathogenic Clinical Isolates” (PLoS ONE, 2016).
Read-outs that look alike come from different tables or passages of the source.

Key:
Klebsiella pneumoniae [1] = test: MIC with/without PMBN, Klebsiella pneumoniae; format: cell-based
How it was run: (§1)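 MIC of rhodanines and control antibiotics measured against Gram-negative bacteria in the presence of a sub-inhibitory concentration of colistin or polymixin B nonapeptide (PMBN). Activity was also tested against E. coli SM1411ΔacrAB, which lacks the AcrAB multidrug efflux pump.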

[2] = system: vancomycin resistant enterococci (VRE); test: Broth microdilution MIC50/MIC90, VRE panel; format: cell-based; details: Enterococcus, 10 VRE strains; for MIC90: VRE, read-out: MIC 90; for MIC50: read-out: MIC 50
Bacillus anthracis = test: microbe, parasite or virus in culture; format: cell-based
Klebsiella pneumoniae [3] = test: MIC with/without sub-MIC colistin, Klebsiella pneumoniae; format: cell-based
How it was run: as §1

Acinetobacter baumannii [4] = test: MIC with/without PMBN, Acinetobacter baumannii; format: cell-based
How it was run: as §1

B. licheniformis = test: Broth microdilution MIC/MBC, B. licheniformis; format: cell-based; details: Bacillus licheniformis; for MBC: read-out: MBC; for MIC: read-out: MIC
MRSA USA300 = test: MIC against MRSA USA300 with and without 4% human serum albumin; format: cell-based, Staphylococcus aureus; details: Staphylococcus aureus, read-out: MIC against MRSA USA300
How it was run: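 Broth microdilution MIC per CLSI against MRSA USA300, run in tryptic soy broth alone and with 4% human serum albumin. MIC is the lowest concentration inhibiting growth.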

B. cereus = test: Broth microdilution MIC/MBC, B. cereus; format: cell-based; details: Bacillus cereus; for MBC: read-out: MBC; for MIC: read-out: MIC
Description: The broth microdilution technique was used, followed by subculturing on agar plates that were rhodanine—free.

[5] = system: vancomycin resistant enterococci (VRE) E. faecalis; test: Broth microdilution MIC/MBC, VRE E. faecalis; format: cell-based; details: for MIC: read-out: MIC
[6] = system: vancomycin resistant enterococci (VRE) E. faecium; test: Broth microdilution MIC/MBC, VRE E. faecium; format: cell-based; details: for MIC: read-out: MIC
Acinetobacter baumannii [7] = test: Broth microdilution MIC, Acinetobacter baumannii; format: cell-based
P. aeruginosa = test: Broth microdilution MIC, P. aeruginosa; format: cell-based; details: Pseudomonas aeruginosa
Salmonella Typhimurium = test: MIC with/without sub-MIC colistin, Salmonella Typhimurium; format: cell-based
How it was run: as §1

[8] = Klebsiella pneumoniae ATCC BAA 1706, PMBN (+) 4 μg/mL
[9] = Klebsiella pneumoniae ATCC BAA 2146, PMBN (+) 4 μg/mL
[10] = Klebsiella pneumoniae ATCC BAA 2146, colistin (+) […]
[11] = Acinetobacter baumannii ATCC BAA747, PMBN (+) 4 μg/mL, read-out: MIC
[12] = Acinetobacter baumannii ATCC BAA19606, PMBN (+) 4 μg/mL, read-out: MIC
[13] = Acinetobacter baumannii, ATCCBAA747
[14] = Acinetobacter baumannii, ATCCBAA19606
[15] = NCIB9375, B. licheniformis Gibson 46 (NCIB 9375) NR-2494
[16] = NRS712, B. licheniformis NRS 712 NR-2499
[17] = NRS201, B. cereus NRS 201 NR-2488
[18] = E. faecalis NR31972 Strain SF 28073
[19] = E. faecium HM 968 Strain ERV102
[20] = E. faecium NR31914 Strain E0120
[21] = E. faecium Patient #1–1 NR-31903
[22] = Salmonella Typhimurium ATCC 700720, colistin (+) […], read-out: MIC
[23] = Salmonella enterica, ATCC 700720 / TYPHIMURIUM

O=C(O)[C@@H](Cc1ccccc1)N1C(=O)/C(=C/c2cccc(Oc3ccc(F)cc3)c2)SC1=S [Rh 4]
64 µM: MBC ([6]; E. faecium E1071 NR-28978) | MBC [6, 19] | MBC [6, 20] | MBC [6, 21]
32 µM: MIC90 [2] | MIC50 [2] | MBC ([5]; E. faecalis ERV103 HM-934) | MIC ([5]; E. faecalis ERV103 HM-934) | MBC [5, 18] | MIC [5, 18] | MBC ([5]; E. faecalis R712 HM-335) | MBC ([5]; E. faecalis S613 HM-334) | MIC ([5]; E. faecalis S613 HM-334) | MBC ([5]; E. faecalis TX0104 HM-201) | MIC ([5]; E. faecalis TX0104 HM-201) | MIC ([6]; E. faecium E1071 NR-28978) | MIC [6, 19] | MIC [6, 20]
>64 µM: MIC (Klebsiella pneumoniae [1]; [8]) | MIC (Klebsiella pneumoniae [1]; [9]) | MIC (Klebsiella pneumoniae [3]; [10]) | MIC (Acinetobacter baumannii [4]; [11]) | MIC (Acinetobacter baumannii [4]; [12]) | MIC (Salmonella Typhimurium; [22])
16 µM: MBC (B. licheniformis; [15]) | MIC (B. licheniformis; [15]) | MBC (B. licheniformis; [16]) | MIC (B. licheniformis; [16]) | MIC (MRSA USA300; Media TSB) | MBC (B. cereus; B. cereus G9241 NR-9564) | MIC (B. cereus; B. cereus G9241 NR-9564) | MIC ([5]; E. faecalis R712 HM-335) | MIC ([6]; E. faecium E417 HM-965) | MIC [6, 21]
8 µM: MBC (B. cereus; B. cereus BAG1O-2 NR-28582) | MIC (B. cereus; B. cereus BAG1O-2 NR-28582) | MBC (B. cereus; B. cereus BAG1X1-1 NR-28575) | MIC (B. cereus; B. cereus BAG1X1-1 NR-28575) | MBC (B. cereus; B. cereus BAG1X2-1 NR-28578) | MIC (B. cereus; B. cereus BAG1X2-1 NR-28578) | MBC (B. cereus; B. cereus VD014 NR-22141) | MIC (B. cereus; B. cereus VD014 NR-22141) | MBC (B. cereus; B. cereus VD115 NR-22148) | MIC (B. cereus; B. cereus VD115 NR-22148) | MBC (B. cereus; B. cereus VD148 NR-22150) | MIC (B. cereus; B. cereus VD148 NR-22150) | MIC (B. cereus; [17])
> 64 µM: MIC (MRSA USA300; 24 h, Media TSB + 4% HSA) | MBC (B. cereus; [17]) | MBC ([6]; E. faecium E417 HM-965)
4 µM: MBC (Bacillus anthracis; Bacillus anthracis AMES35) | MIC (Bacillus anthracis; Bacillus anthracis AMES35) | MBC (Bacillus anthracis; Bacillus anthracis UM23) | MIC (Bacillus anthracis; Bacillus anthracis UM23) | MBC (Bacillus anthracis; Bacillus anthracis Weybridge) | MIC (Bacillus anthracis; Bacillus anthracis Weybridge)
> 128 µM: MIC (Klebsiella pneumoniae [1]; Klebsiella pneumoniae, BAA1706) | MIC (Klebsiella pneumoniae [1]; Klebsiella pneumoniae, BAA2146) | MIC (Klebsiella pneumoniae [3]; Klebsiella pneumoniae, BAA2146) | MIC (Acinetobacter baumannii [4]; [13]) | MIC (Acinetobacter baumannii [4]; [14]) | MIC (Acinetobacter baumannii [7]; ATCC13345) | MIC (Acinetobacter baumannii [7]; ATCC17786) | MIC (P. aeruginosa; ATCC9721) | MIC (P. aeruginosa; ATCC15442) | MIC (Salmonella Typhimurium; [23])

O=C(O)[C@H](Cc1ccccc1)N1C(=O)/C(=C/c2cccc(-c3ccccc3)c2)SC1=S [Rh 5]
> 64 µM: MIC (MRSA USA300; 24 h, Media TSB + 4% HSA) | MBC ([6]; E. faecium E417 HM-965) | MBC ([6]; E. faecium E1071 NR-28978) | MBC [6, 20]
>64 µM: MIC (Klebsiella pneumoniae [1]; [8]) | MIC (Klebsiella pneumoniae [1]; [9]) | MIC (Klebsiella pneumoniae [3]; [10]) | MIC (Acinetobacter baumannii [4]; [11]) | MIC (Acinetobacter baumannii [4]; [12]) | MIC (Salmonella Typhimurium; [22])
16 µM: MIC90 [2] | MIC50 [2] | MIC (MRSA USA300; Media TSB) | MBC ([5]; E. faecalis ERV103 HM-934) | MIC ([5]; E. faecalis ERV103 HM-934) | MBC [5, 18] | MIC [5, 18] | MBC ([5]; E. faecalis R712 HM-335) | MBC ([5]; E. faecalis S613 HM-334) | MIC ([5]; E. faecalis S613 HM-334) | MBC ([5]; E. faecalis TX0104 HM-201) | MIC ([5]; E. faecalis TX0104 HM-201) | MIC ([6]; E. faecium E1071 NR-28978) | MIC [6, 19] | MIC [6, 20]
2 µM: MBC (Bacillus anthracis; Bacillus anthracis AMES35) | MIC (Bacillus anthracis; Bacillus anthracis AMES35) | MBC (Bacillus anthracis; Bacillus anthracis UM23) | MIC (Bacillus anthracis; Bacillus anthracis UM23) | MIC (Bacillus anthracis; Bacillus anthracis Weybridge)
64 µM: MBC [6, 19] | MBC [6, 21]
4 µM: MBC (Bacillus anthracis; Bacillus anthracis Weybridge) | MBC (B. cereus; B. cereus BAG1O-2 NR-28582) | MIC (B. cereus; B. cereus BAG1O-2 NR-28582) | MBC (B. cereus; B. cereus BAG1X1-1 NR-28575) | MIC (B. cereus; B. cereus BAG1X1-1 NR-28575) | MBC (B. cereus; B. cereus BAG1X2-1 NR-28578) | MIC (B. cereus; B. cereus BAG1X2-1 NR-28578) | MIC (B. cereus; B. cereus VD014 NR-22141) | MBC (B. cereus; B. cereus VD115 NR-22148) | MIC (B. cereus; B. cereus VD115 NR-22148) | MBC (B. cereus; B. cereus VD148 NR-22150) | MIC (B. cereus; B. cereus VD148 NR-22150) | MBC (B. cereus; [17]) | MIC (B. cereus; [17])
8 µM: MBC (B. licheniformis; [15]) | MIC (B. licheniformis; [15]) | MBC (B. licheniformis; [16]) | MIC (B. licheniformis; [16]) | MBC (B. cereus; B. cereus G9241 NR-9564) | MIC (B. cereus; B. cereus G9241 NR-9564) | MBC (B. cereus; B. cereus VD014 NR-22141) | MIC ([5]; E. faecalis R712 HM-335) | MIC ([6]; E. faecium E417 HM-965) | MIC [6, 21]
> 128 µM: MIC (Klebsiella pneumoniae [1]; Klebsiella pneumoniae, BAA1706) | MIC (Klebsiella pneumoniae [1]; Klebsiella pneumoniae, BAA2146) | MIC (Klebsiella pneumoniae [3]; Klebsiella pneumoniae, BAA2146) | MIC (Acinetobacter baumannii [4]; [13]) | MIC (Acinetobacter baumannii [4]; [14]) | MIC (Acinetobacter baumannii [7]; ATCC13345) | MIC (Acinetobacter baumannii [7]; ATCC17786) | MIC (P. aeruginosa; ATCC9721) | MIC (P. aeruginosa; ATCC15442) | MIC (Salmonella Typhimurium; [23])
